Results: patent US20240190823A1, “NRF2 INHIBITORS AND USES THEREOF” (Board of Trustees of Michigan State University, priority 2021, published 2024)

Key:
[1] = tested on: A549 cells; experiment: In vivo treatment study, subcutaneous A549 xenograft; conditions: for tumor growth (tumor volume): i.p. daily (M-F), compound 1 50 mg/kg BID, carboplatin 5 mg/kg
Method: Male athymic nude mice (Harlan Laboratories, 6 week-old) were injected in the flank with 5×10^6 A549 cells. Cell line authenticity and absence of pathogens in the A549 cells were confirmed before establishing the model (I DEXX BioAnalytics). […] All mice were weighed twice a week, and tumors were measured twice a week using a caliper. All mice were sacrificed after 4 weeks of treatment and harvested for analysis of Nrf2 expression and cell proliferation.
Tumors were harvested and fixed in 10% neutral buffered formalin. Sectioned were obtained for immunohistochemistry staining. Sodium citrate buffer (10 mM, Vector) was used for antigen retrieval. 3% hydrogen peroxide (15-minute incubation) was used to quench the endogenous peroxidase activity. Sections were stained with PCNA (1:200, Santa Cruz) or Nrf2 (1:200, Novus Biologicals) antibodies for 1 hour at room temperature or overnight at 4° C., respectively. Anti-mouse and anti-rabbit secondary antibodies conjugated to HRP were purchased from Cell Signaling Technology. Signal was detected using a DAB kit (Cell Signaling Technology) and sections were counterstained with hematoxylin (Vector).

[2] = tested on: NF-κB pathway proteins (IκBa, NF-κB, p-NF-κB), cyclinG1 and STAT3; experiment: Western blotting of other cellular proteins (selectivity); type: cell-based
Method: Protein concentrations were measured using the BCA assay (Sigma-Aldrich). 20 μg of protein were separated by 10% SDS-PAGE gels and transferred to nitrocellulose membranes. Nrf2 (Novus Biologicals, 1:1000), NQO1 (Abcam, 1:1000), HO-1 (Abcam, 1:1000), Keap1 (Cell Signaling Technology, 1:1000), NF-κB (Cell Signaling Technology, 1:1000), IκBα (Cell Signaling Technology, 1:1000) Cyclin G1 (Santa Cruz, 35 1:1000), β-TrCP (Cell Signaling Technology, 1:1000), STAT3 (Cell Signaling Technology, 1:1000), Ubiquitin (Cell Signaling Technology, 1:1000), Histone 3 (Cell Signaling Technology, 1:4000), GAPDH (Santa Cruz, 1:4000) and Vinculin (Cell Signaling Technology, 1:4000) primary antibodies were applied to detect the corresponding proteins. Secondary antibodies (anti-rabbit or anti-mouse linked to HRP, 1:1000) were purchased from Cell Signaling Technology. ECL Western blotting substrate (GE Healthcare Life Sciences, UK) was used to detect the signal. […] Protein quantification was done using ImageJ.

[3] = tested on: A549, H460, A427 and MCF-7 cells; experiment: Cell growth assay, MTT, 2D culture, cancer cells; type: cell-based, human; conditions: 72 hours
Method: (§1) To evaluate cell proliferation in 2D culture, a MTT assay was performed. Cells were seeded in 96-well plates with 2000 cells/well in their corresponding growth media. […] To assess cell growth in 3D culture, A549, H460 and A427 cells were plated in 0.6% soft agar for 7 days. A Cytation 3 imaging reader from BioTek with Gen5 3.04 software was used to quantify colonies. Seven pictures were taken every 100 μm and superimposed together by z-projection function. Colonies>50 μm in diameter were quantified for each cell line.
(§2) Besides its anti-oxidative properties, Nrf2 also contributes to tumor cell growth. Nrf2 not only regulates cell proliferation as a downstream mediator of several onco-proteins but also reprograms cellular metabolism to favor anabolic pathways.

[4] = tested on: MCF-10A cells; experiment: Cell growth assay, MTT, MCF-10A cells; type: cell-based; conditions: concentrations<20 μM (data not shown)
Method: as §1, §2

[5] = tested on: A549, H460 and A427 cells; experiment: Cell growth in 3D culture (0.6% soft agar); type: cell-based, human; conditions: 7 days, dose-dependent
Method: as §1, §2

[6] = tested on: A549 cells; experiment: Reactive oxygen species (ROS) assay; conditions: 24 hours, then tBHP for 15 minutes
Method: DCFDA (10 μM) was added for 2 hrs as an ROS indicator and then cells were treated with tert-butyl hydroperoxide (tBHP, 250 μM) for 15 minutes before harvesting. Then cells were washed with PBS and trypsinized to a single cell suspension. The cell pellet was resuspended in PBS and analyzed using a flow cytometer (Accuri, BD) with the FLA-1 channel. 50,000 events were acquired for each sample. Mean fluorescence intensity (MFI) was calculated using FlowJo software.

[7] = tested on: A549 cells; experiment: Chemoresistance assay (Celltiter-glo); conditions: 72 hours
Source text: Data was normalized to the DMSO control and presented as a percentage of cell viability. Data represent three independent experiments.

[8] = tested on: Nrf2 pathway; experiment: RT-qPCR of targets downstream of Nrf2 in A549 cells; conditions: 24 hours of treatment
Method: Total RNA was isolated using a RNeasy Mini Kit (QIAGEN). RNA concentrations were determined using NanoDrop. For each sample, 500 ng RNA was used to synthesize cDNA with high capacity cDNA reverse transcription kits (AppliedBiosystems). Primers were ordered from IDT. AppliedBiosystems Fast SYBR Green Master Mix and the QuantStudio 7 Flex Real-Time PCR system were used to detect gene expression. The delta-delta Ct method was applied to calculate relative gene expression. Values were normalized to the reference gene GAPDH and expressed as fold change compared to DMSO treated samples.

[9] = target: T1, Nrf2 (Homo sapiens, UniProt Q16236); conditions: cited from earlier work
T1 sequence (Q16236 1-605): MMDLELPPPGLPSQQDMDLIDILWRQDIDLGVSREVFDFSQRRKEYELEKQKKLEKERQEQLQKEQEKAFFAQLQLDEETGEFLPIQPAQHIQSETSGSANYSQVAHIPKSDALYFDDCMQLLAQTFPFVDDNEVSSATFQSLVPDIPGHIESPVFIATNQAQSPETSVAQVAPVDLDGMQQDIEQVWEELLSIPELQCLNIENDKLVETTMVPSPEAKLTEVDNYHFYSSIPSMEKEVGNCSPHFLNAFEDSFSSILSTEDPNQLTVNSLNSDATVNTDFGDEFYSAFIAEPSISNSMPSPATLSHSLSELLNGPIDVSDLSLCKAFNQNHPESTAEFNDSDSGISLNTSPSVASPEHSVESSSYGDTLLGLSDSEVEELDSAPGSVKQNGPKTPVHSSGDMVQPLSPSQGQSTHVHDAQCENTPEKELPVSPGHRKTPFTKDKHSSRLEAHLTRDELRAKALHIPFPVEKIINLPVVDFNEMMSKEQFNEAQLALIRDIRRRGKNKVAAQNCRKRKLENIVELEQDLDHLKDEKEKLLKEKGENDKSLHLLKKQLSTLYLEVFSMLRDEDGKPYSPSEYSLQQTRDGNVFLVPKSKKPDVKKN

N.N.O=C([O-])C1(C(=O)[O-])CCC1.[Pt+2] [Carboplatin, carboplatin, reference compound]
tumor growth (tumor volume) ([1]; nude mice, four weeks): failed to arrest tumor growth

Cc1cc(C)cc(Nc2nc(C)c(-c3ccccc3)cc2C#N)c1 [Compound 1, 2-((3,5-dimethylphenyl)amino)-6-methyl-5-phenylnicotinonitrile]
levels of NF-κB pathway proteins and other fast turnover proteins (cyclinG1, STAT3) [2]: did not change levels | overall expression pattern of abundant cellular proteins ([2]; data not shown): did not alter the overall expression pattern of abundant cellular proteins | sensitivity of Keap1 mutant (A549, H460) vs Keap1 wildtype (A427, MCF-7) cells ([3]; MTT): higher sensitivity | cell proliferation (MTT) ([3]; Keap1 mutant and Keap1 wild-type cancer cells): inhibited proliferation in various cancer cells | cell viability of non-tumorigenic epithelial cells [4]: did not have any effects on cell viability | growth in soft agar [5]: significantly (p<0.05) suppressed the growth | expression of Nrf2 protein in the tumors ([1]; immunohistochemistry, vs vehicle control group): diminished the expression of Nrf2 protein in the tumors | tolerability / body weight ([1]; nude mice, 50 mg/kg BID i.p., four weeks): generally well tolerated in the mice without inducing any changes on body weight over time | tumor growth (tumor volume) ([1]; nude mice, four weeks): appeared to slow tumor growth, but the change was not statistically significant | ROS production [6]: dose-dependently increased ROS production | effect in combination with chemotherapy drugs (carboplatin, doxorubicin, 5-fluorouracil, topotecan) on cell viability [7]: Additive effects | mRNA expression of NFE2L2 [8]: did not affect the mRNA expression of NFE2L2 | mRNA expression of targets downstream of Nrf2 (NQO1, GCLC, GCLM, GST1A1, UGT1A6) [8]: significantly (p<0.05) decreased the expression of all these downstream genes

CCC(=O)O[C@]1(C(=O)CCl)[C@@H](C)C[C@H]2[C@@H]3CCC4=CC(=O)C=C[C@]4(C)[C@@]3(F)[C@@H](O)C[C@@]21C [clobetasol propionate]
mechanism of Nrf2 degradation [9]: promotes βTrCP-dependent degradation of Nrf2

brusatol
time for Nrf2 protein levels to return to basal levels [9]: ≤ 8 h | time of maximum reduction of Nrf2 [9]: 2 to 4 h
